Results reported in US12428415B2, “Matriptase 2 inhibitors and uses thereof” (Disc Medicine, Inc., priority 2018, dated 2025).

Target: T1, Human Recombinant Matriptase 2 (Homo sapiens, UniProt Q8IU80)
T1 construct: purchased Enzo Life Sciences (an in-house preparation was also used) ALX-201-752-1
T1 sequence (Q8IU80 1-811): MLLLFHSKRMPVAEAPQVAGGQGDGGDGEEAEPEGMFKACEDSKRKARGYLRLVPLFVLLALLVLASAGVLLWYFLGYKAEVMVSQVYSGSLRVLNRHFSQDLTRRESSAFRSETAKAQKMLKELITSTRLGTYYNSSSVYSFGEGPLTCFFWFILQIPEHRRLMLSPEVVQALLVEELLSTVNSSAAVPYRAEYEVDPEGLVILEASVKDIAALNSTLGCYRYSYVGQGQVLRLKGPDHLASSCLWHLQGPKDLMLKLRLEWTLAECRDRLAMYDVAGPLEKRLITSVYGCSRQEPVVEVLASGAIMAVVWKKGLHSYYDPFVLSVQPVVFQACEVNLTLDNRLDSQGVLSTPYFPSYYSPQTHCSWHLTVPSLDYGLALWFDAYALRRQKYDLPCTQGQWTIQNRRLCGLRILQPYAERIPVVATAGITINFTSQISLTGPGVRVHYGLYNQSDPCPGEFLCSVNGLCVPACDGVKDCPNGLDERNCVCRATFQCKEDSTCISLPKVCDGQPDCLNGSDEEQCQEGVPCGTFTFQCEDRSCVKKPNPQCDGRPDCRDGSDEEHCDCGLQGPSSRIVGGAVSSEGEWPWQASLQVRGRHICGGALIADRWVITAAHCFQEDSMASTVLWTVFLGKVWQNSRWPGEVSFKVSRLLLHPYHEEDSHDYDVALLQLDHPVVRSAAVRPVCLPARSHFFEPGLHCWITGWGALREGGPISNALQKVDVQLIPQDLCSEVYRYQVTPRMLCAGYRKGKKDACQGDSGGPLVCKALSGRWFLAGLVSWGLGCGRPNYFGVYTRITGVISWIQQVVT
Assay: Matriptase 2 fluorescence based inhibition assay, Method A (100 mM TRIS pH 9, 1 mg/mL BSA)
Assay type: biochemical
Conditions: 1 uM; Assay Used A; read-out: Mar-2 % inhibition at 1 uM
Experimental: Test compounds were evaluated for their potential to inhibit Human Recombinant Matriptase 2 (in-house and commercial protein from Enzo Life Sciences—cat log -ALX-201-752-1) using fluorescence based assay. The concentration of Recombinant Matriptase 2 and the substrate used in the assay was: 7 nM (commercial) and 15 nM (Inhouse Matriptase 2) and 100 μM (Boc-Gln-Ala-Arg-7-amido-4-methyl coumarin hydrobromide—Cat log: B4153-Sigma) respectively. The assay buffer used was 100 mM TRIS pH 9, 1 mg/mL BSA. The assay was performed using 384 well black flat bottom plate from grenier (Cat log: 781076) at 25° C. The enzyme and compound was preincubated for 30 mins, plate was read 60 mins after substrate addition at wavelength Ex: 360/Em: 480 nm. The final assay volume was 20 μl. Stock solution of compounds were initially prepared in DMSO and appropriate dilutions were made for screening and IC50 determination (final DMSO conc in the assay was 1%). All the measurements were carried out using the Spectramax M5, Molecular devices. The compounds were screened at 1 and 10 μM concentration and IC50 was determined for the interested compounds.
To determine IC50 values, dose response curves were generated by plotting percentage inhibition as a function of inhibitor concentration and the data was fitted to sigmoidal non-linear regression equation (variable slope) using Graph Pad prism software V7.

inhibition at 1 µM [%]	SMILES
0 to 25	N=C(N)c1ccc2c([N+](=O)[O-])c(C(=O)N[C@H]3CC[C@H](N)CC3)n(CCS(=O)(=O)c3ccccc3)c2c1 [Compound I-55, N-((1r,4r)-4-Aminocyclohexyl)-6-carbamimidoyl-3-nitro-1-(2-(phenylsulfonyl)ethyl)-1H-indole-2-carboxamide]
25 to 50	N=C(N)c1ccc2c(N)c(C(=O)N[C@H]3CC[C@H](N)CC3)n(CCS(=O)(=O)c3ccccc3)c2c1 [Compound I-56, 3-Amino-N-((1r,4r)-4-aminocyclohexyl)-6-carbamimidoyl-1-(2-(phenylsulfonyl)ethyl)-1H-indole-2-carboxamide]
0 to 25	CCOC(=O)Nc1c(C(=O)NC2CCC(N)CC2)n(CCS(=O)(=O)c2ccccc2)c2cc(/C(N)=N/O)ccc12 (stereo not drawn) [Compound I-57, Ethyl (2-(((1r,4r)-4-aminocyclohexyl)carbamoyl)-6-((Z)—N′-hydroxycarbamimidoyl)-1-(2-(phenylsulfonyl)ethyl)-1H-indol-3-yl)carbamate]
0 to 25	N=C(N)c1ccc2c(N)c(C(=O)NCC3CCCCC3)n(CCS(=O)(=O)c3ccccc3)c2c1 [Compound I-58, 3-Amino-6-carbamimidoyl-N-(cyclohexylmethyl)-1-(2-(phenylsulfonyl)ethyl)-1H-indole-2-carboxamide]
0 to 25	N=C(N)c1ccc2cc(C(=O)Nc3ccc(F)cc3)n(Cc3ccc(C(N)=O)cc3)c2c1 [Compound I-59, 6-Carbamimidoyl-1-(4-carbamoylbenzyl)-N-(4-fluorophenyl)-1H-indole-2-carboxamide]
0 to 25	N=C(N)c1ccc2cc(C(=O)Nc3cccc(C(F)(F)F)c3)n(Cc3ccc(C(N)=O)cc3)c2c1 [Compound I-60]
0 to 25	N=C(N)c1ccc2cc(C(=O)Nc3ccc(C(F)(F)F)cc3)n(Cc3ccc(C(N)=O)cc3)c2c1 [Compound I-61]
0 to 25	N=C(N)c1ccc2cc(C(=O)Nc3cccc(F)c3)n(Cc3ccc(C(N)=O)cc3)c2c1 [Compound I-62]
0 to 25	C[C@H](NC(=O)c1cc2ccc(C(=N)N)cc2n1Cc1ccc(C(N)=O)cc1)c1ccc(F)cc1 [Compound I-63]
0 to 25	N=C(N)c1ccc2cc(C(=O)Nc3ccc4c(c3)CCC4)n(Cc3ccc(C(N)=O)cc3)c2c1 [Compound I-64]
0 to 25	N=C(N)c1ccc2cc(C(=O)Nc3ccc(Oc4ccccc4)cc3)n(Cc3ccc(C(N)=O)cc3)c2c1 [Compound I-65]
0 to 25	N=C(N)c1ccc2cc(C(=O)Nc3ccc(-c4ccccc4)cc3)n(Cc3ccc(C(N)=O)cc3)c2c1 [Compound I-66]
0 to 25	COc1cccc(NC(=O)c2cc3ccc(C(=N)N)cc3n2Cc2ccc(C(N)=O)cc2)c1 [Compound I-67]
0 to 25	CSc1cccc(NC(=O)c2cc3ccc(C(=N)N)cc3n2Cc2ccc(C(N)=O)cc2)c1 [Compound I-68]
0 to 25	COc1ccc(NC(=O)c2cc3ccc(C(=N)N)cc3n2Cc2ccc(C(N)=O)cc2)cc1OC [Compound I-69]
0 to 25	C[C@@H](NC(=O)c1cc2ccc(C(=N)N)cc2n1Cc1ccc(C(N)=O)cc1)c1ccccc1 [Compound I-70]
0 to 25	Cc1ccc(NC(=O)c2cc3ccc(C(=N)N)cc3n2Cc2ccc(C(N)=O)cc2)cc1O [Compound I-71]
0 to 25	C[C@H](NC(=O)c1cc2ccc(C(=N)N)cc2n1Cc1ccc(C(N)=O)cc1)c1ccccc1 [Compound I-72]
25 to 50	N=C(N)c1ccc2cc(C(=O)Nc3cccc4cnccc34)n(Cc3ccc(C(N)=O)cc3)c2c1 [Compound I-73]
0 to 25	N=C(N)c1ccc2cc(C(=O)Nc3ccc4[nH]cnc4c3)n(Cc3ccc(C(N)=O)cc3)c2c1 [Compound I-74]
0 to 25	N=C(N)c1ccc2cc(C(=O)NCc3cccc(F)c3)n(Cc3ccc(C(N)=O)cc3)c2c1 [Compound I-76]
0 to 25	N=C(N)c1ccc2cc(C(=O)NCc3ccccc3)n(Cc3ccc(C(N)=O)cc3)c2c1 [Compound I-77]
0 to 25	N=C(N)c1ccc2cc(C(=O)Nc3ccc(C(=O)N4CCCC4)cc3)n(Cc3ccc(C(N)=O)cc3)c2c1 [Compound I-78]
0 to 25	CC(C)c1cccc(NC(=O)c2cc3ccc(C(=N)N)cc3n2Cc2ccc(C(N)=O)cc2)c1 [Compound I-79]

inhibition at 1 µM [%]	SMILES
0 to 25	N=C(N)c1ccc2cc(C(=O)NCc3cc(F)cc(F)c3)n(Cc3ccc(C(N)=O)cc3)c2c1 [Compound I-80]
0 to 25	N=C(N)c1ccc2cc(C(=O)NCCc3ccccc3)n(Cc3ccc(C(N)=O)cc3)c2c1 [Compound I-81]
0 to 25	CC(C)[C@H](NC(=O)c1cc2ccc(C(=N)N)cc2n1Cc1ccc(C(N)=O)cc1)c1ccccc1 [Compound I-82]
0 to 25	N=C(N)c1ccc2cc(C(=O)NCc3cccc(C(F)(F)F)c3)n(Cc3ccc(C(N)=O)cc3)c2c1 [Compound I-83]
0 to 25	N=C(N)c1ccc2cc(C(=O)Nc3ccc(Cl)cc3)n(Cc3ccc(C(N)=O)cc3)c2c1 [Compound I-84]
0 to 25	N=C(N)c1ccc2cc(C(=O)N[C@@H](CO)c3ccccc3)n(Cc3ccc(C(N)=O)cc3)c2c1 [Compound I-85]
0 to 25	N=C(N)c1ccc2cc(C(=O)N[C@H](CO)c3ccccc3)n(Cc3ccc(C(N)=O)cc3)c2c1 [Compound I-86]
0 to 25	N=C(N)c1ccc2cc(C(=O)Nc3ccc(F)c(F)c3)n(Cc3ccc(C(N)=O)cc3)c2c1 [Compound I-87]
0 to 25	N=C(N)c1ccc2cc(C(=O)Nc3ccc4ncsc4c3)n(Cc3ccc(C(N)=O)cc3)c2c1 [Compound I-88]
0 to 25	N=C(N)c1ccc2cc(C(=O)Nc3cc(F)c(F)c(F)c3)n(Cc3ccc(C(N)=O)cc3)c2c1 [Compound I-89]
0 to 25	N=C(N)c1ccc2cc(C(=O)Nc3ccc(N4CCCC4)cc3)n(Cc3ccc(C(N)=O)cc3)c2c1 [Compound I-90]
0 to 25	N=C(N)c1ccc2cc(C(=O)Nc3cccc4c3CCC4)n(Cc3ccc(C(N)=O)cc3)c2c1 [Compound I-91]
0 to 25	N=C(N)c1ccc2cc(C(=O)Nc3ccc(C(=O)N4CCC4)cc3)n(Cc3ccc(C(N)=O)cc3)c2c1 [Compound I-92]
0 to 25	CN(C)C(=O)COc1cccc(NC(=O)c2cc3ccc(C(=N)N)cc3n2Cc2ccc(C(N)=O)cc2)c1 [Compound I-93]
0 to 25	C[C@H](NC(=O)c1cc2ccc(C(=N)N)cc2n1Cc1ccc(C(N)=O)cc1)c1ccc(F)c(F)c1 [Compound I-94]
0 to 25	C[C@H](NC(=O)c1cc2ccc(C(=N)N)cc2n1Cc1ccc(C(N)=O)cc1)c1cccc(F)c1 [Compound I-95]
25 to 50	CC[C@@H](NC(=O)c1cc2ccc(C(=N)N)cc2n1Cc1ccc(C(N)=O)cc1)c1ccccc1 [Compound I-96]
25 to 50	N=C(N)c1ccc2cc(C(=O)Nc3ccc(N4CCC(F)(F)C4)cc3)n(Cc3ccc(C(N)=O)cc3)c2c1 [Compound I-97]
0 to 25	C[C@H](NC(=O)c1cc2ccc(C(=N)N)cc2n1Cc1ccc(C(N)=O)cc1)c1ccc(Cl)cc1 [Compound I-98]
25 to 50	CN(C)C(=O)COc1ccc(NC(=O)c2cc3ccc(C(=N)N)cc3n2Cc2ccc(C(N)=O)cc2)cc1 [Compound I-99]
25 to 50	N=C(N)c1ccc2cc(C(=O)NCc3cccc(N4CCCC4)c3)n(Cc3ccc(C(N)=O)cc3)c2c1 [Compound I-100]
0 to 25	N=C(N)c1ccc2cc(C(=O)Nc3ccc(N4CCCCC4)cc3)n(Cc3ccc(C(N)=O)cc3)c2c1 [Compound I-102]
0 to 25	CN1CCC(N(C)C(=O)c2cc3ccc(C(=N)N)cc3n2Cc2ccc(C(N)=O)cc2)C1 (stereo not drawn) [Compound I-103, 6-Carbamimidoyl-1-(4-carbamoylbenzyl)-N-methyl-N-(1-methylpyrrolidin-3-yl)-1H-indole-2-carboxamide]
0 to 25	N=C(N)c1ccc2cc(C(=O)Nc3ccc(N4CCCC4)c(F)c3)n(Cc3ccc(C(N)=O)cc3)c2c1 [Compound I-104]
